Data on two molecules can be found in patent US8352031B2, “Protein activity modification” (Impulse Dynamics NV, priority 2004, dated 2013).

Where “and” joins values, the source holds several entries; their conditions need not be identical. Equal entries are not always repeated.

For assay [1], the system named is dogs with intracoronary microembolization-induced chronic HF. The assay is described as follows: 3 months therapy with beta-blocker alone, beta-blocker + CCM or no therapy: LV EDV, ESV, EF. The class given is in vivo, dog. The protocol: In a set of experiments, dogs with intracoronary microembolization-induced chronic HF (LV EF 30%-40%) were randomized to 3 months therapy with either BB (beta-blockers) alone (extended release metoprolol succinate, 100 mg once daily), extended release metoprolol succinate (100 mg, once daily) combined with CCM therapy, or to no therapy at all (Control). LV end-diastolic volume (EDV), end-systolic volume (ESV) and EF were measured before randomization (PRE) and after 3 months of therapy (POST). To determine “treatment effect”, the change A between PRE and POST therapy for each group was compared among the 3 study groups.

Another assay has as its system phospholamban serine-16. The assay is described as follows: Phosphorylation of PLB at serine-16 in failed LV tissue homogenate with/without PK inhibitor and CCM signal (Western blot). In kind it is biochemical, dog. The settings on record: for P-PLB serine-16: single samples. The protocol: (§1) The tissue homogenate was prepared in the following manner. […] The homogenate was then filtered through 4 layers of cheese cloth. The resulting homogenate was stored in ice and its protein concentration was determined by the Lowry method.
(§2) The CCM signals were delivered to the homogenate as follows. The homogenate was diluted 2 fold in homogenate buffer and subsequently aliquotted 3 ml each in assay tubes. Assay tubes were divided into 2 sets (Set A and Set B), each subset consisting of […]. CCM signals were delivered for 10″, 30″, 1′, 5′, 30′, and 60′ in one of the sets, while the other set served as time control. The reaction was stopped by adding concentrated SDS. Protein assay on all the samples were performed by Lowry method.
(§3) Additional experiments of tissue homogenate were carried out in the presence and absence of protein kinese inhibitors. The homogenate was the same as above, from dogs with heart failure. […] CAS 62996-74-1.
In general terms: In western blotting, separated proteins are transferred to a membrane and probed.

Assay [2] deals with phospholamban threonin-17. In words: Phosphorylation of PLB at threonine-17 in failed LV tissue homogenate with/without PK inhibitor and CCM signal (Western blot). The settings on record: for P-PLB threonin-17: single samples; for P-PLB threonin-17, Av: average. In kind it is biochemical, dog. The protocol:
as §1, §2, §3
The following tables summarize the experimental results for theronin-17: […]

The next assay relates to platelet aggregation. The settings on record: advertised; cited from earlier work.
Assay [3] has as its system human malignant glioma cell lines. The settings on record: advertised; cited from earlier work.
The next assay concerns normal cells. The settings on record: advertised; cited from earlier work.
[4] abbreviates: Control + PK Inhibitor, no CCM, 10 sec.
[5] abbreviates: Control + PK Inhibitor, no CCM, 20 sec.
Where [6] appears, read: Control + PK Inhibitor, no CCM, 30 sec.
Setting [7] is: PK Inhibitor + CCM delivered for 60 sec.

In the case of `COCCc1ccc(OCC(O)CNC(C)C)cc1` (stereo not drawn) [BB, metoprolol succinate], in assay [1] (BB alone), the “LV EDV” value is listed as “prevented the increase in EDV”, the “LV EF” value is listed as “significantly increased EF” and the “LV ESV” value is “significantly reduced ESV”. In assay [1] (BB combined with CCM), the “LV EDV” value is given as “prevented the increase in EDV”, the “LV EF” value is given as “significantly increased EF” and the “LV ESV” value is recorded as “significantly reduced ESV”. The “Treatment effect (Δ) LV EF, PRE to POST” value in assay [1] (BB combined with CCM therapy) stood at 12±1%.

Take `CN[C@@H]1C[C@H]2O[C@@](C)([C@@H]1OC)n1c3ccccc3c3c4c(c5c6ccccc6n2c5c31)C(=O)NC4` [STAUROSPORIN]: the “P-PLB serine-16” value in the assay with phospholamban serine-16 (setting [4]) is 8.0 and 9.0; in the assay on phospholamban serine-16 (setting [5]) it was 12.2 and 14.0; with phospholamban serine-16 (setting [6]), 6.8 and 9.7; with phospholamban serine-16 (PK Inhibitor + CCM delivered for 30 sec), 14.3 and 13.0; with phospholamban serine-16 (setting [7]) it was 22.7. In the assay with phospholamban serine-16 (Control + PK Inhibitor, no CCM, 30 sec, average), the “P-PLB serine-16, Av” value was determined as 9.4. Also, the “response of serine-16 phosphorylation to CCM in presence of kinese inhibitor” value with phospholamban serine-16 (HF dog tissue homogenate) is “responded close to usual”. Also, the “P-PLB threonin-17” value in assay [2] (setting [4]) is 8.9 and 9.5; in assay [2] (setting [6]), 8.2; in assay [2] (PK Inhibitor + CCM delivered for 10 sec), 14.6 and 9.9 and 8.7; in assay [2] (PK Inhibitor + CCM delivered for 20 sec) it was 8.3 and 15.0. For the same molecule, the figures for the “P-PLB threonin-17, Av” value in assay [2] (setting [5]) and in assay [2] (setting [7]) were 9.0 and 15.0, respectively. The “response of threonin-17 phosphorylation to CCM in presence of kinese inhibitor” value in assay [2] (HF dog tissue homogenate) is “reduced and delayed response”. The “platelet aggregation induced by collagen or ADP” value with platelet aggregation was “inhibits platelet aggregation”. In addition, the apoptosis entry in assay [3] is reported as “Induces apoptosis”. Besides, the cell cycle arrest entry in the assay with normal cells is recorded as “Arrests normal cells at the G1 checkpoint”.
